“Also recorded” adds a separate entry of the source.
Assays:
[1] = system: CHFR expression in esophageal cancer cell lines; test: CHFR expression by RT-PCR in esophageal cancer cell lines after treatment with demethylating agent; type: cell-based; settings: for Expression of CHFR (RNA level, RT-PCR) in CHFR-methylated cell lines: KYSE150 and KYSE510, no expression at baseline, 72 hour treatment
Text: A) Methylation-specific PCR (MSP) of the CHFR promoter region was examined in esophageal cancer cell lines. […] B) Expression of CHFR as determined by RT-PCR. […] C) Position of MSP primers and molecular beacon in the promoter region of the CHFR gene. A previously described gel-based MSP assay for detection of CHFR methylation in colorectal cancer was used 20.

[2] = system: advanced localized esophageal cancer; test: Response (pCR) and overall survival of esophageal cancer patients after neoadjuvant chemoradiotherapy and surgery, by CHFR methylation status; type: in vivo, human; settings: for Overall survival when CHFR methylation present vs. absent: paclitaxel n=31, docetaxel n=18, Kaplan-Meier; for Overall survival, docetaxel vs. paclitaxel: taxane-based therapy, N=49
Protocol: Endoscopic tumor biopsy specimens were studied from 81 patients with advanced localized esophageal cancer scheduled to undergo neoadjuvant chemoradiotherapy and surgery at the Johns Hopkins Hospital (JHH) between January 1995 and January 2007. Forty-nine patients were treated with taxane based combination chemoradiotherapy. Pretreatment esophageal tumor tissue from endoscsopic biopsy was initially available from JHH for twenty-one patients treated with taxanes. After an analysis of these initial 21 patients, IRB permission was obtained to request further biopsy specimens from referring endoscopy centers for patients subsequently treated at Johns Hopkins Hospital. This allowed analysis of pretreatment endoscopic tumor biopsies from an additional 28 patients treated with taxanes and 32 patients treated with non-taxane regimens. […] Of the forty-nine taxane-treated patients, thirty-one received paclitaxel containing combinations, while eighteen received a docetaxel-based combination shown in the Table below.
Response to preoperative chemoradiotherapy was based on pathology of the resected esophagus and nodal tissue specimen and classified as either pathologic complete response (pCR) or non-pCR, where pCR is the complete absence of intact tumor cells in surgical pathology specimens. We verified histological results and deaths during follow-up by re-examining original hospital records. This study was approved by the Johns Hopkins Institutional Review Board.
Methylation of CHFR was determined by detecting analyte (CHFR and ACTS) with real-time MSP using molecular beacons. These consisted of parallel amplification/quantification using specific primer and detector pairs for each analyte using the iCycler (BioRad Laboratories, Hercules, Calif.). […] Duplicate PCR amplifications were analyzed using iQuant 3.0 software (BioRad), exported as Ct values, and used to calculate copy numbers based on a linear regression of values plotted on a standard curve of 20-2×10^6 gene copy equivalents of plasmid DNA containing bisulfite modified CHFR. CHFR copy numbers were divided by ACTB copy numbers for each sample to normalize for DNA quality and quantity, multiplied by 100 for convenience to determine the ratio-value. […]
Based upon findings from the initial 21 patients treated with taxanes and 40% methylation prevalence, the study size necessary to detect a hazard ratio of death of 3.00 for unmethylated CHFR was estimated. […] The primary endpoint was time to death or censor measured from the origin date of pretreatment endoscopic biopsy. […] Associations between clinical response and CHFR methylation were assessed using logistic regression. […] Statistical comparisons and survival between groups were analyzed using the log-rank test. […]

## Nc1ncn([C@H]2C[C@H](O)[C@@H](CO)O2)c(=O)n1 [5-aza-2′-deoxycytidine]
[1]
  Expression of CHFR (RNA level, RT-PCR) in CHFR-methylated cell lines: re-express the gene at the RNA level
[1]; listed as 5-aza-2′ deoxycytidine
  Expression of CHFR (RNA level, RT-PCR) in CHFR-methylated cell lines: reversed
[1]; all other (unmethylated) esophageal cancer cell lines, express CHFR at baseline
  Expression of CHFR (RT-PCR) in unmethylated cell lines: not affected

## CC(=O)O[C@@]12CO[C@@H]1C[C@H](O)[C@@]1(C)C(=O)[C@H](O)C3=C(C)[C@@H](OC(=O)[C@H](O)[C@@H](NC(=O)OC(C)(C)C)c4ccccc4)C[C@@](O)([C@@H](OC(=O)c4ccccc4)[C@H]21)C3(C)C [docetaxel]
[2]
  Overall survival when CHFR methylation present vs. absent: survival advantage; also recorded: improvement in survival
  Overall survival, docetaxel vs. paclitaxel: no difference

## CC(=O)O[C@H]1C(=O)[C@@]2(C)[C@H]([C@H](OC(=O)c3ccccc3)[C@]3(O)C[C@H](OC(=O)[C@H](O)[C@@H](NC(=O)c4ccccc4)c4ccccc4)C(C)=C1C3(C)C)[C@]1(OC(C)=O)CO[C@@H]1C[C@@H]2O [paclitaxel]
[2]
  Overall survival when CHFR methylation present vs. absent: survival advantage; also recorded: significantly greater
  Overall survival, docetaxel vs. paclitaxel: no difference
